Assay results taken from patent publication EP0302435A1, “Method for augmenting antibody-dependent cellular cytotoxicity” (NEORX CORPORATION, priority 1987, dated 1989).

Test system: LS-180 target cells
Test: PMN-ADCC target cell lysis assay (⁵¹Cr release)
Type: cell-based, human
Conditions: for % Cytotoxicity: PMNs pretreated 30 min, E:T 100:1, 3 h ADCC assay; for % Cytotoxicity / augmentation of PMN-mediated IgG₃ ADCC: antibody NR-CO-04; for augmentation of PMN-mediated IgG₃ ADCC: activator pretreatment of PMNs, summary of Table 2
Description: Peripheral blood polymorphonuclear leukocytes (PMNs) were obtained from healthy normal human donors. Blood (150 cc) was withdrawn by venipuncture in heparinized tubes and mixed with an equal volume of 3% dextran in phosphate-buffered saline (PBS). After sedimentation at 1 x g for 10 min at room temperature, the leukocyte-rich plasma was layered on top of lymphocyte separation medium (LSM, Organon Technica, Durham, NC). PMNs were purified by treating the PMNs and red blood cell (RBC) pellet with RBC lysing solution (0.800% w/v NH₄Cl, 0.1% w/v KHCO₃, 37.0 mg tetrasodium EDTA in 100 ml water at pH 7.3). After incubating approximately 5 min at room temperature, the volume was increased 3X with PBS and the cells washed twice by centrifugation. After resuspension of the cells in RPMI-5% FCS, the PMNs were used in cytotoxicity assays or were incubated with response modifiers.
An appropriate number of target cells were labeled with 200 µCi ⁵¹Cr (⁵¹Cr-Na₂CrO₃; New England Nuclear, Boston, MA) for 2 h at 37°C, with gentle mixing every 15-30 min. The labeled cells were washed three times with 15 ml RPMI followed by centrifugation at 250 x g for 5 min at room temperature. The final pellet was resuspended in RPMI containing 5% FCS, counted, and diluted to an appropriate concentration.
In a typical assay, effector PMNs at different effector:target ratios were added to wells of a microtiter plate (Falcon Plastics, Oxnard, CA), except for those wells to be used for determination of total and spontaneous release of ⁵¹Cr from target cells. For GM-CSF augmentation, PMNs were generally treated within the microtiter plates by the addition of the lymphokine. The effector cells were either washed before the addition of antibody and target cells, or were left in the presence of lymphokine during the ADCC assay.
NR-CO-04 antibody was added to appropriate wells at a concentration of 1 µg/well (4 µg/ml), and the microtiter plate was then incubated at 37°C for 3 h. […]
Wells used for determination of spontaneous ⁵¹Cr release received labeled target cells alone in 200 µl of RPMI-5% FCS; the wells used for determination of total ⁵¹Cr release received labeled target cells and 200 µl 1.0% NP-40.
After […] incubation, the microtiter plate was centrifuged at 250 x g for 5 min at room temperature, and 125 µl of supernatant was transferred from each well into a separate 12 x 75 mm glass tube. Each tube was then assayed for ⁵¹Cr release with a Beckman 5000 gamma counter.
PMN-ADCC assays were performed in triplicate, according to the procedure described in Example I.E., supra. The % lysis (or percent specific release) is indicative of the level of ADCC of target cells. Test release is the amount of release in wells containing effector cells and target cells.

Molecule	% Cytotoxicity (concentration not given) [%]	augmentation of PMN-mediated IgG₃ ADCC	GM-CSF augmentation of PMN-ADCC (dose-dependent, 1 to 100 μM retinal, summary of Table 4)	low level of PMN-ADCC observed in the absence of GM-CSF stimulation (dose-dependent, summary of Table 4)	% Cytotoxicity (10⁻⁷ M) [%]	% Cytotoxicity (10⁻⁸ M) [%]	% Cytotoxicity (10⁻⁹ M) [%]
CCCCCCCCCCCCCC(=O)O[C@@H]1[C@@H](C)[C@@]2(O)[C@@H](C=C(CO)C[C@]3(O)C(=O)C(C)=C[C@@H]23)[C@@H]2C(C)(C)[C@]12OC(C)=O [PMA, phorbol myristate acetate]	18.8 ± 0.6	less effective than GM-CSF	–	–	–	–	–
CC1=C(/C=C/C(C)=C/C=C/C(C)=C/C=O)C(C)(C)CCC1 [Retinal]	–	–	abrogated	further depressed	–	–	–
fMET-Leu-Phe peptide [fMLP]	–	less effective than GM-CSF	–	–	16.2 ± 0.8	23.7 ± 1.2	15.6 ± 0.8
